Measured values published in patent US20260007684A1, “AMIDE DERIVATIVES FOR INHIBITING NLRP3 AND USES THEREOF” (Ventus Therapeutics U.S., Inc., priority 2023, published 2026).
pIC50: −log10 of the molar value.

How the values were obtained:
[1] = target: mouse NLRP3 (Mus musculus (Mouse), UniProt Q8R4B8); assay: Mouse Whole Blood (mWB) NLRP3 Assay (LPS/ATP, IL-1b); format: cell-based; conditions: mouse whole blood, LPS/ATP, IL-1b
Protocol: Reagents: The following reagents were used: blood collection tubes (Heparin); U-bottom 96-well tissue culture (Falcon 353077); HBSS for LPS, ATP and compound dilutions (Gibco 24020-117); and LPS, E. coli serotype 026:B6 (Sigma L-2654).
Mouse IL-1b MSD assay: Blood was drawn from female CD1 mice (9 to 10 weeks) by cardiac puncture. Blood was plated (135 μL) per well in 96-well U-bottom plates. 7.5 μL of 20×LPS (20 μg/mL, final concentration of 1 μg/mL) was added and mixed by gentle pipetting, and the mixture was incubated in a TC incubator for five hours. 7.5 μL of 20× compound or vehicle per well was added and mixed by gentle pipetting. Compounds were diluted 1/50 in HBSS to prepare a 20× dilution curve in […].
The mixture was incubated for 30 minutes in a TC incubator with shaking (450 rpm). 5 μl of 31×ATP (155 mM, final concentration of 5 mM) was added and mixed by gentle pipetting. The mixture was incubated in a TC incubator for 30 minutes with shaking (450 rpm). The plate was centrifuged for 10 minutes at 800×g and −70 μL of plasma was removed. Plasma was frozen if required. Mouse IL-1b was analyzed with IL-1b MSD assay (K152TUK).
Compounds were added 30 minutes before priming the cells with LPS when TNFα was required to be quantified in the cytokine panel to confirm selectivity.

[2] = target: T1, human NLRP3 (Homo sapiens (Human), UniProt Q96P20); assay: Scintillation Proximity (SPA) NLRP3 Assay: displacement of 3H-MCC950; format: binding; conditions: displacement of 3H-MCC950; read-out: SPA IC50
[3] = target: T1, human NLRP3; assay: Human Whole Blood (hWB) NLRP3 Assay (LPS/ATP, IL-1β); format: cell-based; conditions: hWB IC50, human whole blood, LPS/ATP, IL-1β
[4] = target: T1, human NLRP3; assay: Human PBMC NLRP3 Assay (LPS priming, ATP stimulation, cytokine measurement); format: cell-based; conditions: PBMC IC50, human PBMC, LPS priming, ATP stimulation

T1 sequence (Q96P20 whole entry): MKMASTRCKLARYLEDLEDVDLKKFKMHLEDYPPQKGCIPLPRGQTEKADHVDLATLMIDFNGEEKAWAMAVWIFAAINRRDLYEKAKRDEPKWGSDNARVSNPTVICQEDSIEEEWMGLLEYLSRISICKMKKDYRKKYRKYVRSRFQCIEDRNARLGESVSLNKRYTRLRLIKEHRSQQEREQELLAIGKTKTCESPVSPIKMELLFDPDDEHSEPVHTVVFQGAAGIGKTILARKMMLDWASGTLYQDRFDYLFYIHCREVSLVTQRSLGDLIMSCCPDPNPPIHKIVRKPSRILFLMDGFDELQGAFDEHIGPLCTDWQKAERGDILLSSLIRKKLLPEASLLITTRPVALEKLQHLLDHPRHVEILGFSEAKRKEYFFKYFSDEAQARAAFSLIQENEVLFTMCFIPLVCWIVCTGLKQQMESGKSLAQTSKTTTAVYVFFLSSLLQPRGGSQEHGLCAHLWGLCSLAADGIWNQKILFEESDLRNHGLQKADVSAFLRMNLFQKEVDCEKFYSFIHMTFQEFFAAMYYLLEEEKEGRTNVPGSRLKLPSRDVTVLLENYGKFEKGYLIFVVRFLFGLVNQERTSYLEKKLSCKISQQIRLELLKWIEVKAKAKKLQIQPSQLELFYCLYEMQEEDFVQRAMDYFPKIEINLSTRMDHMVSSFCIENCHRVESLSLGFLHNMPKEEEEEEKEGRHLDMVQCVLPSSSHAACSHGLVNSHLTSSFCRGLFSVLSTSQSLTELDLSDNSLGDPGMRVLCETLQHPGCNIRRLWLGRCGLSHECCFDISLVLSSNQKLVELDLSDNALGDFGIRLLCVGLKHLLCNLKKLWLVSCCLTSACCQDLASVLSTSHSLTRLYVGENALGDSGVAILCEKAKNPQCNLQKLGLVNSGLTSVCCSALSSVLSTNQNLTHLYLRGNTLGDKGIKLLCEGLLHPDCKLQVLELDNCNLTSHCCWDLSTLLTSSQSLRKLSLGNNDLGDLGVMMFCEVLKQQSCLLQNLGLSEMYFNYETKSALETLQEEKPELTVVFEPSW
Sequence of mouse NLRP3 (Q8R4B8 whole entry): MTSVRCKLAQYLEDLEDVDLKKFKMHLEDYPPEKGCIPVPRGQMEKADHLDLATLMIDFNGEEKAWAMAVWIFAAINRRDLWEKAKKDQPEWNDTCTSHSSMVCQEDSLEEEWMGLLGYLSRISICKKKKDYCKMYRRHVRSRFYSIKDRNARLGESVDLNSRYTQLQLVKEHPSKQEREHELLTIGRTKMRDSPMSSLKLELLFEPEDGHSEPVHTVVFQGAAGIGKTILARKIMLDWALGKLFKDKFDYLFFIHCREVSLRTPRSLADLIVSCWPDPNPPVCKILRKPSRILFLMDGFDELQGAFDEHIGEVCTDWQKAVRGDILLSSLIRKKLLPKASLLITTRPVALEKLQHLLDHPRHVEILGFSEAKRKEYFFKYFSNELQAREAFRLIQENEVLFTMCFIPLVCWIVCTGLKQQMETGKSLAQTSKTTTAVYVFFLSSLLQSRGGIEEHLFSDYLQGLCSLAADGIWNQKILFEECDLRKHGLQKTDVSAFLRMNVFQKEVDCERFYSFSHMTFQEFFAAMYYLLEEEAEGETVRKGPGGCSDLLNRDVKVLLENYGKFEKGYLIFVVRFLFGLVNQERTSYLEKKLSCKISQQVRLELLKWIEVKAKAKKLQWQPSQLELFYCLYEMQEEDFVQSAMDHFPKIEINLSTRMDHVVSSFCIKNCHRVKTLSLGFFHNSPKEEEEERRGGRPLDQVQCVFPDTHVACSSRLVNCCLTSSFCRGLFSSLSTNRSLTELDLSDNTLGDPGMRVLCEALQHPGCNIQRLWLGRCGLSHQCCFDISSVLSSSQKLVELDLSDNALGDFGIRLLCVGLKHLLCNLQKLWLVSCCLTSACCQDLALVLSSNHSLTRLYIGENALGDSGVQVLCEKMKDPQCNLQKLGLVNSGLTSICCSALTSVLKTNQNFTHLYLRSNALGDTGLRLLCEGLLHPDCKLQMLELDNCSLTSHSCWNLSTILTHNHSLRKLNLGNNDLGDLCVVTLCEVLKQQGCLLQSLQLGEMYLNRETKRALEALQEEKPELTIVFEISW

Row | SMILES | pIC50 [1] | pIC50 [2] | pIC50 [3] | pIC50 [4]
1 | C[C@@H]1C[C@@H](NC(=O)C2(c3ccc(OC(F)F)cc3)CC2)[C@H]2CC[C@@H]1N2c1nnn[nH]1 (single isomer, unassigned) [35A*] | > 6.00 | > 6.00 | > 6.00 | > 8.00
2 | C[C@@H]1C[C@@H](NC(=O)C2(c3ccc(C(F)(F)F)cc3)CC2)[C@H]2CC[C@@H]1N2c1nnn[nH]1 [79A*, N-((1R,2R,4R,5S)-4-methyl-8-(1H-tetrazol-5-yl)-8-azabicyclo[3.2.1]octan-2-yl)-1-(4-(trifluoromethyl)phenyl)cyclopropane-1-carboxamide] | > 6.00 | > 6.00 | > 6.00 | > 8.00
